From ChEMBL document CHEMBL1201862, “PubChem BioAssay data set” (2004)
Activity calls are given as the source filed them. Cut-off read from the data, not from the text of the source, for most assays here: actives have a measured AC50 and inactives only a lower limit.

Assays:
Format in all cases: functional
[1] = loss of viability in HepG2 cells – cell-based, CellTiter-Glo, cherry-picked, cytotoxicity control for Shn3 inhibitor project, dose response (AID 624134)
[2] = non-specific 3'UTR reporter inhibition in Clone20-Shn3RL – cell-based, Renilla luciferase, cherry-picked, counter-screen for Shn3 inhibitor project, dose response (AID 624133)
[3] = molecular target: T1, Replicative DNA helicase DnaB (Mycobacterium tuberculosis, UniProt P9WMR3); assay: DnaB intein splicing inhibitors, dose response, biochemical, cell-free fluorescence (AID 449749)
T1 sequence (P9WMR3 whole entry): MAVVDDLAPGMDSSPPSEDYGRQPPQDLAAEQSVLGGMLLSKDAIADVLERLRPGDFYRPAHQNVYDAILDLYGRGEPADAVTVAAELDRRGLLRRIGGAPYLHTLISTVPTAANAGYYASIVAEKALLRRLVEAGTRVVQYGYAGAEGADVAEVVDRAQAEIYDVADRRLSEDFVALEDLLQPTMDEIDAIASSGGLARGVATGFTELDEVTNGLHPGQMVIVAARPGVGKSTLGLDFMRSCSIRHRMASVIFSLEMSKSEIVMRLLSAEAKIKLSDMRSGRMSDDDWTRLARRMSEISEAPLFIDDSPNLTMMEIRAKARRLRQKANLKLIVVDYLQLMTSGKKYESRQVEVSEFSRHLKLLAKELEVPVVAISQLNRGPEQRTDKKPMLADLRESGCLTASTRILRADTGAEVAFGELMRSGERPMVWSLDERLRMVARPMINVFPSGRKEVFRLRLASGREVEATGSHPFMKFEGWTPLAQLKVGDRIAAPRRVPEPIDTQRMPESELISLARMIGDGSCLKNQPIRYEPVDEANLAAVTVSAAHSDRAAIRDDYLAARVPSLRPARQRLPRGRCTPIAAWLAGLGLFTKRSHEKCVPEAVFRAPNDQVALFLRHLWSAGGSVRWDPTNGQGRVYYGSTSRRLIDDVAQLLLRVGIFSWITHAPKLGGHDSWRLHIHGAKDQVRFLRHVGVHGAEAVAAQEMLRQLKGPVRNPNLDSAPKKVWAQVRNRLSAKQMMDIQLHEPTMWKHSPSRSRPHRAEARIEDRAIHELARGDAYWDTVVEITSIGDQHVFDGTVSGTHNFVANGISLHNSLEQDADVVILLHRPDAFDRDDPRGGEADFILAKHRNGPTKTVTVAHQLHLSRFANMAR

[4] = molecular target: T2, Apoptotic protease-activating factor 1 (Homo sapiens, UniProt O14727)
T2 sequence (O14727 whole entry): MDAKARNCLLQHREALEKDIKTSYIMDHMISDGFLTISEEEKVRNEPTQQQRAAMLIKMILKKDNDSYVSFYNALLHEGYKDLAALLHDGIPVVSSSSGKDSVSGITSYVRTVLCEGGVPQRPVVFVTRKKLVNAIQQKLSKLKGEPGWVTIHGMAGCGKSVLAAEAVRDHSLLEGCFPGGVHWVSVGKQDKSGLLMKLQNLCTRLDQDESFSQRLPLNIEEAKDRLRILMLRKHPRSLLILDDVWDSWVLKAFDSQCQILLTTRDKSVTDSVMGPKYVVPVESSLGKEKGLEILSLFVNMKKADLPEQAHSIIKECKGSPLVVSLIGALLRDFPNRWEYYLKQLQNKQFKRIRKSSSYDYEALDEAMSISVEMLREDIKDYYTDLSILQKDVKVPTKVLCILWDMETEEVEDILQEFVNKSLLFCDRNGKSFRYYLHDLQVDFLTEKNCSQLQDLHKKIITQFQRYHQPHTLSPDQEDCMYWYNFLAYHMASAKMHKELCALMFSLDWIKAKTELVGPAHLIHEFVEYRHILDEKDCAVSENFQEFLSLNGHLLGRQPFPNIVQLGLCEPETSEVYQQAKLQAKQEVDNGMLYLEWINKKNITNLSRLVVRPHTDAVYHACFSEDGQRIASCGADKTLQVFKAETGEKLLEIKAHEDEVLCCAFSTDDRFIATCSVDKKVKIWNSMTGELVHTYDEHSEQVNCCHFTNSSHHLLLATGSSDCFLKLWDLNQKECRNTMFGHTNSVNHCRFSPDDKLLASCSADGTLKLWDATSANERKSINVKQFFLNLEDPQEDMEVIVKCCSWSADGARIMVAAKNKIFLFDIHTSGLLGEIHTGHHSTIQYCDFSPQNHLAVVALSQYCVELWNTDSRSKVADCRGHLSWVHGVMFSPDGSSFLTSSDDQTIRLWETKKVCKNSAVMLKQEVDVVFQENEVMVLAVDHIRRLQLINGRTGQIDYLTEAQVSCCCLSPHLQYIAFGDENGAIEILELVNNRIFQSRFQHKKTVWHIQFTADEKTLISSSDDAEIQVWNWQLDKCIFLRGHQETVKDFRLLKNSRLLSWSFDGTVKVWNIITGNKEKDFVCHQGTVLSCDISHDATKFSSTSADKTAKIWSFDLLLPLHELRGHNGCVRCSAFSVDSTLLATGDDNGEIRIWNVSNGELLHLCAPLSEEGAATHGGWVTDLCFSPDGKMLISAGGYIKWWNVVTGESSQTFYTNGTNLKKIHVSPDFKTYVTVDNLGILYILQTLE

Protein RecA = molecular target: T3, Protein RecA (Mycobacterium tuberculosis, UniProt P9WHJ3); assay: Fluorescence Cell-Free Homogeneous Dose Retest to Identify Inhibitors of RecA-Intein Splicing Activity. [Related pubchem assays (depositor defined):AID2097, AID2223, AID489010, AID492950]
T3 sequence (P9WHJ3 whole entry): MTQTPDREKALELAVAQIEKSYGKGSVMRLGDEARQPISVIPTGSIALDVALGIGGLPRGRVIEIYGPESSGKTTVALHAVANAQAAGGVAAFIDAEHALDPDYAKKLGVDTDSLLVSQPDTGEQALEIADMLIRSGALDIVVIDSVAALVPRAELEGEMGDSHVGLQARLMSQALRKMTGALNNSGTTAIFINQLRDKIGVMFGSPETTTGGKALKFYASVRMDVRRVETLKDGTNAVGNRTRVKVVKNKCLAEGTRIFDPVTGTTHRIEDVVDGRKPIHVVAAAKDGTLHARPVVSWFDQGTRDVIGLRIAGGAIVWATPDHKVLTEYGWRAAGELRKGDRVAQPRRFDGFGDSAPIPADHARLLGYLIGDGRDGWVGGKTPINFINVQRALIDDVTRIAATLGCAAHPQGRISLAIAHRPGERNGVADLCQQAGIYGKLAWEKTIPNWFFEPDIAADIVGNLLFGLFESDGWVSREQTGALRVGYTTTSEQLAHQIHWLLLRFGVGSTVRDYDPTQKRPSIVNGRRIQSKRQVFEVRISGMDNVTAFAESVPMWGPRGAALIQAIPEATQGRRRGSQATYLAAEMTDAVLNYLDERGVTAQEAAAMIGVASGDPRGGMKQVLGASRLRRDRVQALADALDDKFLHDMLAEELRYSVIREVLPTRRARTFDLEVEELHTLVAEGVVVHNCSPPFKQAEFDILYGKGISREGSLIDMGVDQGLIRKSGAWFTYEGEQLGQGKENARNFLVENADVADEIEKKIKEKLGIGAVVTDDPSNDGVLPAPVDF

CC(=O)NC(c1ccc2ccccc2c1)c1ccc2cccnc2c1O (stereo not drawn)
AC50 [1]: 0.867 µM (active) | AC50 [2]: 0.51 µM (active)

CCOC(=O)C1=C(c2ccccc2)N=C(N)NC1c1ccc(OCc2ccc(Cl)cc2)c(OC)c1 (stereo not drawn)
AC50 [3]: 8.68 µM (active) | IC50 [4]: 14.6 µM (active) | EC50 (Protein RecA): 14.3 µM (active)

CCOC(=O)c1c(C)[nH]c2c1-c1ccccc1C(=O)C2=O
AC50 [3]: 1.34 µM (active) | EC50 (Protein RecA): 1.82 µM (active) | AC50 [1]: 3.96 µM (active) | AC50 [2]: 1 µM (active)

O=[N+]([O-])c1c(NCCO)cc(Sc2nc3ccccc3s2)c2nonc12
AC50 [3]: 1.05 µM (active) | EC50 (Protein RecA): 0.722 µM (active) | AC50 [1]: 32.1 µM (active) | AC50 [2]: 10.7 µM (active)

O=C(c1ccccc1)c1coc2c1C(=O)c1ccccc1C2=O
IC50 [4]: 15 µM (active)

CCOC(=O)c1c(C)oc2c1c(/C=N/CCC(=O)O)c(O)c1ccccc12
AC50 [3]: > 380 µM (inactive) | IC50 [4]: 12.3 µM (active) | EC50 (Protein RecA): 0.39 µM (active)

COc1ccc2c(c1)CCC(/C=N/c1ccc3c(c1)OCO3)=C2O
IC50 [4]: 17.4 µM (active)
